The source of these data is US11548903B2, “Bicyclic thiazine and oxazine derivatives as beta-secretase inhibitors and methods of use” (AMGEN INC., priority 2016, dated 2023).

Assay [1] relates to BACE1 (Aβ40 from cells stably expressing Amyloid Precursor Protein). Description: In vitro BACE1 cell-based assay (Aβ40 in conditioned medium, HTRF). The method, then: In Vitro BACE1 Cell-Based Assay The cell-based assay measures inhibition or reduction of Aβ40 in conditioned medium of test compound treated cells expressing amyloid precursor protein. Cells stably expressing Amyloid Precursor Protein (APP) were plated at a density of 45K cells/well in 384 well plates (Corning/BioCoat 354663). The test compounds were then added to cells in 22-point dose response concentrations with the starting concentration being 62.5 μM. The compounds were diluted from stock solutions in DMSO and the final DMSO concentration of the test compounds on cells was 0.625%. The cells were cultivated overnight at 37° C. and 5% CO2 in DMEM supplemented with 10% FBS. After 24 h of incubation with the test compounds, the conditioned media was collected and the Aβ40 levels were determined using HTRF (Homogeneous Time Resolved Fluorescence). […] The HTRF to detect Aβ40 was performed in 384 well plates (Costar 3658). The antibody pair that were used to detect Aβ 40 from cell supernatants were ConfAb40 antibody (Amgen in-house) and biotinylated 6E10 (BIOLEGEND). As an alternative to ConfAb40, a commercially available antibody, Anti-beta Amyloid 1-40 antibody [BDI350] from Abcam, Cambridge, Mass. 02139-1517 (Product code: ab20068), may be used in this assay. […] The conditioned media was incubated with above antibodies and Streptavidin Allophycocyanin Conjugate for 30-60 minutes at 23° C. The final readout was performed on Envision from PerkinElmer.
(In general: In TR-FRET formats the signal depends on donor and acceptor labels being close together.)

For another assay, the target named is Recombinant CatD (Homo sapiens (Human), UniProt P07339). Description: In vitro enzymatic Cathepsin D (CatD) FRET assay. The format is biochemical. The settings on record: read-out: Cat D Enzyme IC50. Here is the method:
In Vitro Enzymatic Cathepsin D (CatD) FRET Assay Recombinant CatD was expressed in CHO cells. The assay buffer for CatD was 0.05 M citrate pH 3.5, 10% DMSO final, 5 mM CHAPS. […] The assays was effectively started by the addition of different FRET substrates (20 nM for CatD) and the combination was incubated for one hour. The FRET assay was terminated with by addition of tris buffer, which raises the pH to neutrality, and the fluorescence was determined. The FRET substrate was a peptide with commercially available fluorophore and quencher, on opposite sides of the CatD cleavage site. The CatD substrate peptide sequence was based on sequence #1 of Table 1 from Gulnik et al., FEBS Lett. 413(2):379-384 (1997). Proteolytic cleavage of the FRET substrate released quenching of fluorescence (CatD excitation 500 nm and emission 580 nm). The in vitro CatD FRET assay data for each of the Examples is provided in Table 2, conducted by the first procedure described above. […] Thus, with this surprising selectivity profile, the compounds provided herein are believed to minimize, reduce or completely eliminate any risk of retinal atrophy and abnormal development of the eye and of the retinal pigmented epithelium as it relates to the normal function and activity of CatD.

For another assay, the target named is human recombinant BACE1 (Homo sapiens (Human), UniProt P56817). Description: In vitro enzymatic BACE1 FRET assay. Format: biochemical. To be noted: read-out: BACE1 Enzyme IC50. Here is the method:
(§1) In Vitro Enzymatic BACE1 and BACE2 FRET (Fluorescence Resonance Energy Transfer) Assays […] These recombinant proteins were further purified using Ni-NTA affinity chromatography (Qiagen). […] The assay was effectively started by the addition of FRET substrate (50 nM) and the combination was incubated for one hour. The FRET assay was terminated by the addition of tris buffer, which raised the pH to neutrality, and the fluorescence was determined. The FRET substrate was a peptide with commercially available fluorophore and quencher, on opposite sides of the BACE cleavage site. The specific FRET substrate used in this assay was made by Amgen in-house. Commercially available FRET substrates, for example, the FRET substrate offered with the BACE1 FRET Assay Kit sold by ThermoFisher Scientific (Catalog Number P2985), may be used in this assay with the appropriate modifications, which are within the purview of the ability of a person with ordinary skill in the art. Proteolytic cleavage of the FRET substrate released quenching of fluorescence (excitation 488 nm and emission 590 nm).

Another assay concerns the target human recombinant BACE2 (Homo sapiens (Human), UniProt Q9Y5Z0). Description: In vitro enzymatic BACE2 FRET assay. Format: biochemical. To be noted: read-out: BACE2 Enzyme IC50. The method, then:
as §1

Setting [2] is: Aβ40, 24 h incubation, read-out: BACE1 Cell IC50.
The mark [3] stands for this setting: 24 h, read-out: BACE1 Cell IC50 (μM).

Like-named read-outs stand apart in the source and are kept apart here.

Chain of human recombinant BACE1 (P56817 46-501): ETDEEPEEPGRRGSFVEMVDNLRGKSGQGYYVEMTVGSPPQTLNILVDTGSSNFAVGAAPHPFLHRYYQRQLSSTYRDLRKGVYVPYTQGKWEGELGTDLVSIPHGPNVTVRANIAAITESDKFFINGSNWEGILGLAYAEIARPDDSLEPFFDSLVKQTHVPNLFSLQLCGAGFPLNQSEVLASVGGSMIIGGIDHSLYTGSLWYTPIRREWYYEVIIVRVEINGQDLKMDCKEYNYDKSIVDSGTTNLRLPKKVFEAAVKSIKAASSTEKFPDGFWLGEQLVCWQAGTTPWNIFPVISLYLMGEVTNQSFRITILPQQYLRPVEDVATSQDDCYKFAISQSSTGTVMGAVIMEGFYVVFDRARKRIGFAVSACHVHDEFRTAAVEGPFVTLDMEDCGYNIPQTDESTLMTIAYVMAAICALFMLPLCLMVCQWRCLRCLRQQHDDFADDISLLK
Chain of human recombinant BACE2 (Q9Y5Z0 63-518): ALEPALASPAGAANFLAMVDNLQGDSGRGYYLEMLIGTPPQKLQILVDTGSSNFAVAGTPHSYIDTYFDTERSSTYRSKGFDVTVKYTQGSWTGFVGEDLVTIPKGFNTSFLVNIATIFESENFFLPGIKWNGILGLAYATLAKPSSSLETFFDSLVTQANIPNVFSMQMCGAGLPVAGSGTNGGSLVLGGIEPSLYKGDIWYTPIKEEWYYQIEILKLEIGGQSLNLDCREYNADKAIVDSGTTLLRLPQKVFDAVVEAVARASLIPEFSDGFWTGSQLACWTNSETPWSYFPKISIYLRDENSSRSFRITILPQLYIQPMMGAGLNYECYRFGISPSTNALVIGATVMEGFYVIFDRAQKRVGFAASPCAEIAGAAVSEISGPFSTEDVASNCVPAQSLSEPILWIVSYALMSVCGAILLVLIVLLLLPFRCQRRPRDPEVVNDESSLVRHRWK
Chain of Recombinant CatD (P07339 65-412): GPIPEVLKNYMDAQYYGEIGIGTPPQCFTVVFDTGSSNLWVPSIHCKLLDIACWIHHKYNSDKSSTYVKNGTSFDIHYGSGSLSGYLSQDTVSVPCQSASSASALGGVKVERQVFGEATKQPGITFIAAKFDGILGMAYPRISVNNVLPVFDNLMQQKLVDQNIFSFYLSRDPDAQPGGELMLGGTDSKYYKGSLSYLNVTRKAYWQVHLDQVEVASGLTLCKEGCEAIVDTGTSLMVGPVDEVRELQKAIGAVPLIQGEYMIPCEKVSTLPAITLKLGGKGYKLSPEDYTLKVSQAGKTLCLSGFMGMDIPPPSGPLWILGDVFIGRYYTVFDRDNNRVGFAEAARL

For the compound `NC1=N[C@@]2(c3cc(/C=C(\F)c4ncc(C(F)(F)F)cc4Cl)ccc3F)CO[C@H](C(F)(F)F)[C@H]2CS1` [Example 137, (4aS,5S,7aS)-7a-(5-((Z)-2-(3-chloro-5-(trifluoromethyl)pyridin-2-yl)-2-fluorovinyl)-2-fluorophenyl)-5-(trifluoromethyl)-4a,5,7,7a-tetrahydro-4H-furo[3,4-d][1,3]thiazin-2-amine], the IC50 in assay [1] (setting [2]) turned out to be 0.2 µM; on Recombinant CatD it was 382 µM; on human recombinant BACE1, 0.015 µM; on human recombinant BACE2, 0.605 µM.

Regarding `N#Cc1ccc(/C(F)=C/c2ccc(F)c([C@@]34CO[C@@H](C(F)(F)F)[C@@H]3COC(N)=N4)c2)nc1` (single isomer, unassigned) [Example 143], the IC50 in assay [1] (setting [2]) was determined as 53.5 µM; on Recombinant CatD, 95.6 µM; at human recombinant BACE1 it was 9.01 µM; on human recombinant BACE2, 140 µM.

As for `COc1nc(N2C[C@H]3CSC(N)=N[C@@]3(c3cc(/C=C(\F)c4ccc(C#N)cn4)ccc3F)C2)nc(C)c1F` [Example 130, 6-((Z)-2-(3-((4aR,7aS)-2-amino-6-(5-fluoro-4-methoxy-6-methylpyrimidin-2-yl)-4,4a,5,6,7,7a-hexahydropyrrolo[3,4-d][1,3]thiazin-7a-yl)-4-fluorophenyl)-1-fluorovinyl)nicotinonitrile], the IC50 in assay [1] (setting [2]) was 0.000906 µM; on Recombinant CatD, 25.8 µM; on human recombinant BACE1, 0.000405 µM; on human recombinant BACE2, 0.00178 µM.

For `C#CCOc1cnc(/C(F)=C/c2ccc(F)c([C@]34CN(C(=O)CC)C[C@H]3CSC(N)=N4)c2)cn1` [Example 122, 1-((4aR,7aS)-2-amino-7a-(2-fluoro-5-((Z)-2-fluoro-2-(5-(prop-2-yn-1-yloxy)pyrazin-2-yl)vinyl)phenyl)-4a,5,7,7a-tetrahydropyrrolo[3,4-d][1,3]thiazin-6(4H)-yl)propan-1-one], the IC50 was determined as 0.0086 µM in assay [1] (setting [2]), 87.9 µM at Recombinant CatD, 0.00236 µM on human recombinant BACE1 and 0.353 µM at human recombinant BACE2.

Turning to `C#CCOc1cnc(/C(F)=C/c2ccc(F)c([C@]34CN(C(=O)OCC)C[C@H]3CSC(N)=N4)c2)cn1` [Example 123, (4aR,7aS)-ethyl 2-amino-7a-(2-fluoro-5-((Z)-2-fluoro-2-(5-(prop-2-yn-1-yloxy)pyrazin-2-yl)vinyl)phenyl)-4a,5,7,7a-tetrahydropyrrolo[3,4-d][1,3]thiazine-6(4H)-carboxylate], the half-maximal inhibitory concentration (IC50) in assay [1] (setting [3]) came to 0.00478 µM; at Recombinant CatD, 36.5 µM; at human recombinant BACE1 it was 0.00449 µM; at human recombinant BACE2, 0.214 µM.

As for `C#C[C@H](C)Oc1cnc(/C(F)=C/c2ccc(F)c([C@]34CN(c5ncc(F)cn5)C[C@H]3CSC(N)=N4)c2)cn1` [Example 115, (4aR,7aS)-7a-(5-((Z)-2-(5-((S)-but-3-yn-2-yloxy)pyrazin-2-yl)-2-fluorovinyl)-2-fluorophenyl)-6-(5-fluoropyrimidin-2-yl)-4,4a,5,6,7,7a-hexahydropyrrolo[3,4-d][1,3]thiazin-2-amine], the half-inhibitory concentration (IC50) came to 0.000542 µM in assay [1] (setting [2]), 18.9 µM on Recombinant CatD, 0.00101 µM at human recombinant BACE1 and 0.0153 µM at human recombinant BACE2.

As to `C#CCOc1cnc(/C(F)=C/c2ccc(F)c([C@]34CO[C@H](C(F)(F)F)[C@H]3CSC(N)=N4)c2)cn1` [Example 127, (4aS,5S,7aS)-7a-(2-fluoro-5-((Z)-2-fluoro-2-(5-(prop-2-ynyloxy)pyrazin-2-yl)vinyl)phenyl)-5-(trifluoromethyl)-4a,5,7,7a-tetrahydro-4H-furo[3,4-d][1,3]thiazin-2-amine], the IC50 in assay [1] (setting [3]) worked out at 0.0243 µM; at Recombinant CatD, 160 µM; at human recombinant BACE1, 0.103 µM; at human recombinant BACE2, 2.9 µM.

The term IC50 denotes the concentration at which inhibition is half-maximal.
